The record followed here is patent US20260152490A1, “METHYLLACTAM RING COMPOUND AND PHARMACEUTICAL USE THEREOF” (Japan Tobacco Inc., priority 2018, published 2026).

One series concerns Escherichia coli WP2uvrA. As to the kind of experiment: Ames test (reverse mutation test), WP2uvrA. The note with it: without S9 mix, 0.01 μg/plate, positive control. It is filed as cell-based. The text has this: (§1) Metabolite 1 and Metabolite C were each tested herein.
(§2) Two plates per treatment were used.
A general note: The Ames test uses bacterial strains that need an amino acid and regain growth without it when mutated back.

Series [1] deals with glucose-loaded SD rats. In words: OGTT (Oral Glucose Tolerance Test), Test Example 3. The format is in vivo. The note with it: male SD rat, 3 mg/kg orally, glucose load after 16 hours, to 120 minutes, compared to vehicle. Here is the method: Vehicle (0.5% methylcellulose solution) or Compound 1, Compound A, or Compound B (3 mg/kg each) suspended in a 0.5% methylcellulose solution was orally administered in 5 mL/kg to an about 4-hour-fasted male SD rat (8-week old, Nihon Charles River K.K., 5 cases for each group).
Statistical analyses were based on Dunnett's multiple group test. The significance level was two-sided 5%.

Series [2] deals with glucose-loaded SD rats. In words: OGTT (Oral Glucose Tolerance Test), Test Example 2. The format is in vivo. The note with it: male SD rat, 1, 3, or 10 mg/kg orally, glucose load after 16 hours, to 120 minutes, compared to vehicle. Here is the method:
Vehicle (0.5% methylcellulose solution) or Compound 1 (1, 3, or 10 mg/kg) suspended in a 0.5% methylcellulose solution was orally administered in 5 mL/kg to an about 4-hour-fasted male SD rat (8-week old, Nihon Charles River K.K., 6 cases for each group).
Statistical analyses were based on Steel's multiple test. The significance level was two-sided 5%.

Series [3] deals with Salmonella typhimurium TA1535. As to the kind of experiment: Ames test (reverse mutation test), TA1535. It is filed as cell-based. Particulars: TA1535, with S9 mix, 2.0 μg/plate, positive control.
Excerpt: as §1, §2

Series [4] deals with Salmonella typhimurium (TA98, TA1537, TA100, and TA1535) and Escherichia coli (WP2uvrA). As to the kind of experiment: Ames test (reverse mutation test), all tester strains: overall conclusion and precipitation. The format is cell-based. Details: key to Precipitation: * Growth inhibition; †: Precipitation.
Excerpt: as §1, §2

For series [5], the system named is Salmonella typhimurium TA98. As to the kind of experiment: Ames test (reverse mutation test), TA98. It is filed as cell-based. The note with it: TA98 with S9 mix.
Excerpt: as §1, §2

In series [6] the test system is Salmonella typhimurium TA100. In words: Ames test (reverse mutation test), TA100. It is filed as cell-based. Particulars: TA100 with S9 mix.
Excerpt: as §1, §2

Turning to `NC(=O)C(=Cc1ccc([N+](=O)[O-])o1)c1ccco1` [AF-2, 2-(2-Furyl)-3-(5-nitro-2-furyl)acrylamide], the results for the “Number of revertant colonies” value in the series with Escherichia coli WP2uvrA (Table 4) and with Escherichia coli WP2uvrA (Table 7) were 69 and 74, respectively.
Consider `C[C@H]1C(=O)NC[C@@H]1C(=O)Nc1cc(-c2cc(F)cc(OC(C)(C)C)c2)n(C(F)(F)F)n1` [Compound 1, (3R,4R)—N-(5-(3-(tert-butoxy)-5-fluorophenyl)-1-(trifluoromethyl)-1H-pyrazol-3-yl)-4-methyl-5-oxopyrrolidine-3-carboxamide], for which the “blood glucose level after the glucose load (A AUC, % of Vehicle)” value in the series with glucose-loaded SD rats [1] is given as “significantly reduced the blood glucose level”. For the same molecule, the “blood glucose level after the glucose load (Δ AUC, % of Vehicle)” value in the series with glucose-loaded SD rats [2] is “significantly reduced the blood glucose level”.
On to `Nc1ccc2cc3ccccc3cc2c1` [Compound 2AA, 2-Aminoanthracene], for which the figures for the “Number of revertant colonies” value in series [3] (Table 2) and in series [3] (Table 6) were 223 and 250, respectively.
For the molecule `CC(C)(C)Oc1cc(F)cc(-c2cc(N)nn2C(F)(F)F)c1` [Metabolite 1], the “potential to induce reverse mutations” value in series [4] (any of the bacterial tester strains, presence or absence of S9 mix) is given as “did not have potential to induce reverse mutations”. Further, the Precipitation result in series [4] (with S9 mix, 556 μg/plate, Table 1 (TA98, TA100)) is “†”; in series [4] (with S9 mix, 1667 μg/plate, Table 1 (TA98, TA100)), “†”; in series [4] (with S9 mix, 5000 μg/plate, Table 1 (TA98, TA100)), “†”; in series [4] (with S9 mix, 5000 μg/plate, Table 2 (TA1537, TA1535, WP2uvrA)) it was “†”; in series [4] (without S9 mix, 5000 μg/plate, Table 4 (all five strains)), “†”.
As to `CC(C)(C)Oc1cccc(-c2cc(N)nn2-c2ccccc2)c1` [Metabolite C], the “potential to induce reverse mutations” value in series [5] and in series [6] was “had potential to induce reverse mutations” throughout. For the same molecule, the Precipitation result in series [4] (with S9 mix, 556 μg/plate, Table 6 (TA1537, TA1535, WP2uvrA)) is on record as “†”; in series [4] (with S9 mix, 1667 μg/plate, Table 6 (TA1537, TA1535, WP2uvrA)) it was “†”; in series [4] (with S9 mix, 5000 μg/plate, Table 6 (TA1537, TA1535, WP2uvrA)) it was “†”; in series [4] (without S9 mix, 556 μg/plate, Table 7 (all five strains)), “†”; in series [4] (without S9 mix, 1667 μg/plate, Table 7 (all five strains)), “†”; in series [4] (without S9 mix, 5000 μg/plate, Table 7 (all five strains)), “†”.
